Experimental findings from ChEMBL document CHEMBL1255249, “Urine bactericidal activity against Escherichia coli isolates exhibiting different resistance phenotypes/genotypes in an in vitro pharmacodynamic model simulating urine concentrations obtained after oral administration of a 400-milligram single dose of cefditoren-pivoxil” (Antimicrob Agents Chemother, 2008) are described below.

In brackets after ≈: the same amount, converted by molar mass. Activity calls are given as the source filed them. No cut-off for these calls is given here.

Series [1] has as its system Escherichia coli. Description: Antimicrobial activity against Escherichia coli S6 expressing extended-spectrum beta-lactamase TEM-116 and SHV-12. The format is functional.
For series [2], the system named is Escherichia coli. In words: Antimicrobial activity against Escherichia coli S1 expressing penicillinase TEM-1. It counts as functional.
Series [3] relates to Escherichia coli. In words: Antimicrobial activity against Escherichia coli S7 expressing extended-spectrum beta-lactamase SHV-12 and penicillinase TEM-1 in presence of beta-lactamase inhibitor clavulanic acid. The format is functional.
In series [4] the test system is Escherichia coli. In words: Antimicrobial activity against Escherichia coli S3 overexpressing penicillinase TEM-1. The format is functional.
Series [5] has as its system Escherichia coli. In words: Antimicrobial activity against Escherichia coli S2 expressing penicillinase TEM-1 in presence of beta-lactamase inhibitor clavulanic acid. It counts as functional.
The subject of series [6] is Escherichia coli. In words: Antimicrobial activity against Escherichia coli S2 expressing penicillinase TEM-1. It counts as functional.
Series [7] deals with Escherichia coli. In words: Antimicrobial activity against Escherichia coli S3 overexpressing penicillinase TEM-1 in presence of beta-lactamase inhibitor clavulanic acid. It counts as functional.
The test system of series [8] is Escherichia coli. In words: Antimicrobial activity against Escherichia coli S4 expressing inhibitor-resistant TEM-34. The format is functional.
Series [9] has as its system Escherichia coli. Description: Antimicrobial activity against Escherichia coli S6 expressing extended-spectrum beta-lactamase TEM-116 and SHV-12 in presence of beta-lactamase inhibitor clavulanic acid. It counts as functional.
The test system of series [10] is Escherichia coli. Description: Antimicrobial activity against Escherichia coli S4 expressing inhibitor-resistant TEM-34 in presence of beta-lactamase inhibitor clavulanic acid. It counts as functional.
Series [11] relates to Escherichia coli. In words: Antimicrobial activity against Escherichia coli S7 expressing extended-spectrum beta-lactamase SHV-12 and penicillinase TEM-1. The format is functional.
For series [12], the system named is Escherichia coli. Description: Antimicrobial activity against Escherichia coli S5 expressing extended-spectrum beta-lactamase TEM-116. It counts as functional.
The subject of series [13] is Escherichia coli. Description: Antimicrobial activity against Escherichia coli S5 expressing extended-spectrum beta-lactamase TEM-116 in presence of beta-lactamase inhibitor clavulanic acid. The format is functional.
Series [14] has as its system Escherichia coli. Description: Antimicrobial activity against Escherichia coli S1 expressing penicillinase TEM-1 in presence of beta-lactamase inhibitor clavulanic acid. It counts as functional.
For series [15], the system named is Escherichia coli. Description: Antimicrobial activity against Escherichia coli S3 overexpressing penicillinase TEM-1 after 24 hrs. It counts as functional, organism-based.
Series [16] has as its system Homo sapiens. In words: Clearance in human at […], po after 3 hrs. The format is ADME, organism-based. Further details: route oral. The following applies: in vivo.
Series [17] has as its system Escherichia coli. Description: Antimicrobial activity against Escherichia coli S1 expressing penicillinase TEM-1 assessed as log reduction in bacterial count upto 8 hrs. The format is functional.
Series [18] has as its system Escherichia coli. In words: Antimicrobial activity against Escherichia coli S2 expressing penicillinase TEM-1 assessed as log reduction in bacterial count after 4 to 24 hrs in presence of calcium ions. It counts as functional.
Series [19] has as its system Escherichia coli. In words: Antimicrobial activity against Escherichia coli S7 expressing extended-spectrum beta-lactamase SHV-12 and penicillinase TEM-1 after 8 hrs. It counts as functional, organism-based.
Series [20] has as its system Escherichia coli. Description: Antimicrobial activity against Escherichia coli S3 overexpressing penicillinase TEM-1 after 8 hrs. It counts as functional, organism-based.
The test system of series [21] is Escherichia coli. Description: Antimicrobial activity against Escherichia coli S5 expressing extended-spectrum beta-lactamase TEM-116 after 12 hrs. It counts as functional, organism-based.
For series [22], the system named is Escherichia coli. Description: Antimicrobial activity against Escherichia coli S6 expressing extended-spectrum beta-lactamase TEM-116 and SHV-12 after 8 hrs. The format is functional, organism-based.
Series [23] concerns Escherichia coli. Description: Antimicrobial activity against Escherichia coli. It counts as functional.
The subject of series [24] is Escherichia coli. In words: Antimicrobial activity against Escherichia coli S7 expressing extended-spectrum beta-lactamase SHV-12 and penicillinase TEM-1 after 12 hrs. It counts as functional, organism-based.
Series [25] concerns Escherichia coli. In words: Antimicrobial activity against Escherichia coli S6 expressing extended-spectrum beta-lactamase TEM-116 and SHV-12 after 12 hrs. The format is functional, organism-based.
The test system of series [26] is Escherichia coli. In words: Antimicrobial activity against Escherichia coli S1 expressing penicillinase TEM-1 after 12 hrs. It counts as functional, organism-based.
Series [27] concerns Escherichia coli. In words: Antimicrobial activity against Escherichia coli S7 expressing extended-spectrum beta-lactamase SHV-12 and penicillinase TEM-1 after 24 hrs. It counts as functional, organism-based.
Series [28] relates to Escherichia coli. In words: Antimicrobial activity against Escherichia coli S6 expressing extended-spectrum beta-lactamase TEM-116 and SHV-12assessed as log reduction in bacterial count upto 8 hrs. The format is functional.
Series [29] concerns Escherichia coli. Description: Antimicrobial activity against Escherichia coli S4 expressing inhibitor-resistant TEM-34 after 12 hrs. The format is functional, organism-based.
In series [30] the test system is Escherichia coli. Description: Antimicrobial activity against Escherichia coli S6 expressing extended-spectrum beta-lactamase TEM-116 and SHV-12 after 24 hrs. The format is functional, organism-based.
For series [31], the system named is Escherichia coli. In words: Antimicrobial activity against Escherichia coli S2 expressing penicillinase TEM-1 assessed as log reduction in bacterial count upto 8 hrs. The format is functional.
The subject of series [32] is Escherichia coli. Description: Antimicrobial activity against Escherichia coli S1 expressing penicillinase TEM-1 after 8 hrs. The format is functional, organism-based.
The subject of series [33] is Escherichia coli. In words: Antimicrobial activity against Escherichia coli S3 overexpressing penicillinase TEM-1 assessed as log reduction in bacterial count upto 8 hrs. The format is functional.
For series [34], the system named is Escherichia coli. In words: Antimicrobial activity against Escherichia coli S1 expressing penicillinase TEM-1 assessed as log reduction in bacterial count after 4 to 24 hrs in presence of calcium ions. The format is functional.
The test system of series [35] is Escherichia coli. In words: Antimicrobial activity against Escherichia coli S4 expressing inhibitor-resistant TEM-34 after 24 hrs. It counts as functional, organism-based.
The test system of series [36] is Escherichia coli. Description: Antimicrobial activity against Escherichia coli S5 expressing extended-spectrum beta-lactamase TEM-116 after 24 hrs. The format is functional, organism-based.
For series [37], the system named is Escherichia coli. In words: Antimicrobial activity against Escherichia coli S2 expressing penicillinase TEM-1 after 8 hrs. It counts as functional, organism-based.
Series [38] has as its system Homo sapiens. Description: Clearance in human at […], po after 3 hrs to 5 hrs. The conditions noted are these: in vivo. The format is ADME, organism-based. Further details: route oral.
Series [39] relates to Escherichia coli. Description: Antimicrobial activity against Escherichia coli S5 expressing extended-spectrum beta-lactamase TEM-116 after 8 hrs. The format is functional, organism-based.
The test system of series [40] is Escherichia coli. Description: Antimicrobial activity against Escherichia coli S4 expressing inhibitor-resistant TEM-34 assessed as log reduction in bacterial count upto 8 hrs. It counts as functional.
In series [41] the test system is Homo sapiens. Description: Clearance in human at […], po after 5 hrs to 12 hrs. It counts as ADME, organism-based. Further details: route oral. The conditions noted are these: in vivo.
The subject of series [42] is Escherichia coli. In words: Antimicrobial activity against Escherichia coli S5 expressing extended-spectrum beta-lactamase TEM-116 assessed as log reduction in bacterial count upto 8 hrs. The format is functional.
For series [43], the system named is Escherichia coli. In words: Antimicrobial activity against Escherichia coli S2 expressing penicillinase TEM-1after 12 hrs. It counts as functional, organism-based.
For series [44], the system named is Escherichia coli. Description: Antimicrobial activity against Escherichia coli S4 expressing inhibitor-resistant TEM-34 after 8 hrs. It counts as functional, organism-based.
Series [45] concerns Escherichia coli. In words: Antimicrobial activity against Escherichia coli S2 expressing penicillinase TEM-1after 24 hrs. The format is functional, organism-based.
The test system of series [46] is Escherichia coli. Description: Antimicrobial activity against Escherichia coli S5 expressing extended-spectrum beta-lactamase TEM-116 assessed as log reduction in bacterial count from 3 to 24 hrs. It counts as functional.
The test system of series [47] is Escherichia coli. Description: Antimicrobial activity against Escherichia coli S2 expressing penicillinase TEM-1 assessed as log reduction in bacterial count after 4 to 24 hrs in presence of magnesium ions. It counts as functional.
Series [48] has as its system Escherichia coli. Description: Antimicrobial activity against Escherichia coli S3 overexpressing penicillinase TEM-1after 12 hrs. It counts as functional, organism-based.
The test system of series [49] is Escherichia coli. In words: Antimicrobial activity against Escherichia coli S1 expressing penicillinase TEM-1 assessed as log reduction in bacterial count after 4 to 24 hrs in presence of magnesium ions. The format is functional.
The test system of series [50] is Homo sapiens. In words: Drug level in human urine at […], po after 8 to 12 hrs. It counts as ADME, organism-based. Further details: route oral. The conditions noted are these: in vivo.
In series [51] the test system is Escherichia coli. In words: Antimicrobial activity against Escherichia coli S1 expressing penicillinase TEM-1 after 24 hrs. The format is functional, organism-based.

Broadly, the MIC is the lowest concentration found to suppress growth. As usually defined, the MIC90 is an inhibitory concentration at the 90% level, which refers to growth in some studies and to a panel of isolates in others. Read a high MIC90 as lower susceptibility.

In the case of `CC1(C)S[C@@H]2[C@H](NC(=O)[C@H](N)c3ccc(O)cc3)C(=O)N2[C@H]1C(=O)O` [AMOXICILLIN], the MIC in series [1] is 8 µg/mL (≈ 21.9 µM); in series [2] it was 8 µg/mL (≈ 21.9 µM); in [3], 8 µg/mL; in series [4], 32 µg/mL (≈ 87.6 µM); in series [5] it was 2 µg/mL; in [6] it was 4 µg/mL (≈ 10.9 µM). Further, the MIC in series [7] was 16 µg/mL; in [8], 32 µg/mL (≈ 87.6 µM); in series [9], 4 µg/mL; in series [10] it was 16 µg/mL; in series [11] it was 16 µg/mL (≈ 43.8 µM); in [12], 4 µg/mL (≈ 10.9 µM). For the same compound, the values for the MIC in [13] and in series [14] were 2 µg/mL and 4 µg/mL, respectively.
On to `CO/N=C(\C(=O)N[C@@H]1C(=O)N2C(C(=O)OCOC(=O)C(C)(C)C)=C(/C=C\c3scnc3C)CS[C@H]12)c1csc(N)n1` [CEFDITOREN PIVOXIL], for which the outcome in series [15], in [20], in [26], in [29], in [32] and in series [35] was Active. Moreover, the outcome in [37], in [39], in [43], in [44], in [45] and in series [48] was Active. Also, the outcome in series [51] was Active. The MIC was 8 µg/mL (≈ 12.9 µM) in series [1]; 0.25 µg/mL (≈ 0.403 µM) in [2]; 1 µg/mL (≈ 1.61 µM) in series [4]; 1 µg/mL (≈ 1.61 µM) in [6]; 2 µg/mL (≈ 3.22 µM) in series [8]; 16 µg/mL (≈ 25.8 µM) in [11]. Further, 0.5 µg/mL (≈ 0.805 µM) was the least that counted as inhibitory in series [12] (MIC). The CL in [16] amounted to 0.86 mL/min; in series [38], 2.88 mL/min; in series [41] it was 3.04 mL/min. Besides, the FC entry in [17] was “>=3”; in series [18] it was more than 4; in [28] it was “>=8”; in [31] it was “>=4”; in series [33] it was “>=5”; in series [34] it was more than 4. Also, the FC entry in [40] is on record as “>=6”; in series [42] it was “>=7”; in series [46], “>=3”; in series [47], more than 4; in series [49], more than 4. In addition, the outcome in series [19], in [21], in [22], in series [24], in [25] and in [27] was inactive. The outcome in series [30] and in series [36] was inactive. In addition, the MIC90 in series [23] came to 0.5 µg/mL (≈ 0.805 µM). Moreover, the Drug uptake in series [50] came to 12.7 µg/mL.
Consider `CO/N=C(\C(=O)N[C@@H]1C(=O)N2C(C(=O)O)=C(COC(N)=O)CS[C@H]12)c1ccco1` [CEFUROXIME], for which the MIC was more than 128 µg/mL in [1]; 4 µg/mL (≈ 9.43 µM) in [2]; 8 µg/mL (≈ 18.9 µM) in series [4]; 4 µg/mL (≈ 9.43 µM) in series [6]; 4 µg/mL (≈ 9.43 µM) in series [8]; 32 µg/mL (≈ 75.4 µM) in [11]. The compound further came in with an MIC in [12] of 32 µg/mL (≈ 75.4 µM).
In the case of `O=C(O)c1cn(C2CC2)c2cc(N3CCNCC3)c(F)cc2c1=O` [CIPROFLOXACIN], the minimal inhibitory concentration (MIC) in series [2] is 0.007 µg/mL (≈ 0.0211 µM); in [6], more than 32 µg/mL; in series [11] it was more than 32 µg/mL.
